Source: PubChem BioAssay AID2060906 (Molecular Pharmacology Branch, DTP, NCI, 2025)

System: 485176-168-R4-J1-PDC complex spheroid growth
Test: Anticancer human tumor 485176-168-R4-J1-PDC patient-derived pancreatic adenocarcinoma cell line growth inhibition [RAS]
Settings: for IC50: curve of first compound; for viability, T/C: stronger effect = lower value
Text: RAS pathway inhibitors in Combinations in Complex Spheroids
A high-throughput screen of multi-cell type tumor spheroids was designed to identify active combinations of RAS pathway inhibitors and targeted small molecules. Complex spheroids include a stromal component modeled by human endothelial cells (HUVEC) and fibroblasts modeled by human mesenchymal stem cells (MSCs). The concentration ranges selected for each drug and investigational agent were based upon clinically achievable concentrations if the clinical Cmax of the agent was known.
Compounds. The drugs and investigational agents: abemaciclib (NSC768073), cobimetinib (NSC768068), divarasib (GDC6063, NSC841802), docetaxel (NSC628503), GDC-1971 (RLY-1971, NSC841576), gemcitabine (NSC613327), inavolisib (NSC800729), ipatasertib (NSC767898), KB-0742 (NSC834161), MRTX-1133 (NSC836407), osimertinib (NSC779217), RMC-4630 (NSC839698), RMC-6236 (NSC851965), RMC-6291 (NSC852671), Ro-3306 (NSC812927), sapanisertib (NSC764658), SN-38 (NSC673596), staurosporine (NSC755774), SY5609 (NSC837396), and tovorafenib (DAY101, NSC766906), were obtained from the National Cancer Institute (NCI) Developmental Therapeutics Program Chemical Repository. The FDA-approved anticancer drug set is available from the NCI Developmental Therapeutics Program. […] The stock solutions were prepared in dimethyl sulfoxide (DMSO, Sigma-Aldrich, St. Louis, MO, cat. D2650) at 800-fold the tested concentration and stored at -70 degrees C prior to their use. All drugs and investigational agents were tested over a range starting from a high concentration at or near the clinical Cmax and decreasing in half-log increments. If the clinical Cmax for an agent had not been determined, the highest concentration tested was 10 microM.
Cell Culture. All cells were maintained in an incubator at 37 degrees C and 5% CO2 with 95% humidity. The PDC lines were cultured according to standard operating procedures established by the NCI PDMR. All PDCs were thawed and cultured in Matrigel-coated flasks prepared with a working solution of 1X Ham's F-12 nutrient mix, without supplementation (Invitrogen, Waltham, MA, cat. 11765054), 100 U/mL penicillin-streptomycin (Invitrogen, cat. 15140122), and 2.5% Matrigel (Corning Inc., Corning, NY, cat. 354248) for the first three passages. The 362531-283-R-J2-PDC and 782815-120-R-J1-PDC lines were cultured in 6C/Colon 1B media, which includes advanced DMEM/F-12 (Thermo Fisher Scientific, cat. 12634028), 10 mM HEPES (Thermo Fisher Scientific, cat. 15630080), 1X GlutaMAX supplement (Thermo Fisher Scientific, cat. 35050061), 0.1 mg/mL primocin (InvivoGen, San Diego, CA, cat. ant-pm-2), 10% defined fetal bovine serum, heat inactivated (HyClone Laboratories Inc., Logan, UT, cat. SH30070.03HI), 50% L-WRN conditioned media (ATCC, cat. CRL-3276), 1.25 mM N-Acetyl-L-cysteine (Sigma-Aldrich, cat. A9165), 10 mM nicotinamide (Sigma-Aldrich, cat. N0636), 1X B-27 supplement (Thermo Fisher Scientific, cat. 17504044), 1X N-2 supplement (Thermo Fisher Scientific, cat. 17502048), 50 ng/mL human EGF (Thermo Fisher Scientific, cat. PHG0311), and 10 microM Y-27632 dihydrochloride (Tocris Bioscience, cat. 1254). The K12877-001-R-J1-PDC line was cultured in 6I media, which includes all 6C/Colon 1B media plus 10 ng/mL human FGF-10 (PeproTech, cat. 100-26), 1 ng/mL human FGF-2 (PeproTech, cat. 100-18B), 1 µM prostaglandin E2 (Tocris Bioscience, cat. 2296), […] hydrocortisone (Sigma-Aldrich, cat. H4001), and […] bovine insulin (Sigma-Aldrich, cat. I6634). The K86415-001-R-J1-PDC line was cultured in 6D media, which includes all 6C/Colon 1B media components minus the L-WRN conditioned media. The 485176-168-R4-J1-PDC was cultured in PANC media, which includes all 6C/Colon 1B media plus 100 ng/mL human FGF-10 (PeproTech, cat. 100-26), 500 nM SB-431542 (Selleckchem, cat. S1067), and 10 nM gastrin (Tocris Bioscience, cat. 3006). […]
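Further: spheroids exposed to compounds for seven days before readout.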
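Wherever viability, T/C is given: luminescence viability expressed relative to DMSO vehicle wells set as 100%.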

## CC(=O)OC12COC1CC(O)C1(C)C(=O)C(O)C3=C(C)C(OC(=O)C(O)C(NC(=O)OC(C)(C)C)c4ccccc4)CC(O)(C(OC(=O)c4ccccc4)C21)C3(C)C (configuration not stated) + C=CC(=O)N1CCN(c2nc(OCC3CCCN3C)nc3c(F)c(-c4nc(N)cc(C)c4C(F)(F)F)c(Cl)cc23)C(C)C1
Second compound 0.00316 µM
  IC50: < 31.6 nM
Second compound 0.01 µM
  IC50: < 31.6 nM
Second compound 0.0316 µM
  IC50: < 31.6 nM
Second compound 0.1 µM
  IC50: < 31.6 nM
Second compound 0.316 µM
  IC50: < 31.6 nM
Second compound 1 µM
  IC50: < 31.6 nM
Second compound 0.00316 µM, first compound 0.0316 µM
  viability, T/C: 13.2%
Second compound 0.00316 µM, first compound 0.1 µM
  viability, T/C: 9.9%
Second compound 0.00316 µM, first compound 0.316 µM
  viability, T/C: 13.1%
Second compound 0.00316 µM, first compound 1 µM
  viability, T/C: 11.3%
Second compound 0.00316 µM, first compound 3.16 µM
  viability, T/C: 15.8%
Second compound 0.00316 µM, first compound 10 µM
  viability, T/C: 18.9%
Second compound 0.01 µM, first compound 0.0316 µM
  viability, T/C: 17%
Second compound 0.01 µM, first compound 0.1 µM
  viability, T/C: 12.3%
Second compound 0.01 µM, first compound 0.316 µM
  viability, T/C: 11.4%
Second compound 0.01 µM, first compound 1 µM
  viability, T/C: 11.7%
Second compound 0.01 µM, first compound 3.16 µM
  viability, T/C: 13.7%
Second compound 0.01 µM, first compound 10 µM
  viability, T/C: 16.3%
Second compound 0.0316 µM, first compound 0.0316 µM
  viability, T/C: 15.2%
Second compound 0.0316 µM, first compound 0.1 µM
  viability, T/C: 13.6%
Second compound 0.0316 µM, first compound 0.316 µM
  viability, T/C: 12%
Second compound 0.0316 µM, first compound 1 µM
  viability, T/C: 15.1%
Second compound 0.0316 µM, first compound 3.16 µM
  viability, T/C: 13.3%
Second compound 0.0316 µM, first compound 10 µM
  viability, T/C: 17.9%
Second compound 0.1 µM, first compound 0.0316 µM
  viability, T/C: 13.3%
Second compound 0.1 µM, first compound 0.1 µM
  viability, T/C: 13.8%
Second compound 0.1 µM, first compound 0.316 µM
  viability, T/C: 10.5%
Second compound 0.1 µM, first compound 1 µM
  viability, T/C: 11.3%
Second compound 0.1 µM, first compound 3.16 µM
  viability, T/C: 16.7%
Second compound 0.1 µM, first compound 10 µM
  viability, T/C: 17.9%
Second compound 0.316 µM, first compound 0.0316 µM
  viability, T/C: 18.4%
Second compound 0.316 µM, first compound 0.1 µM
  viability, T/C: 13.3%
Second compound 0.316 µM, first compound 0.316 µM
  viability, T/C: 11.8%
Second compound 0.316 µM, first compound 1 µM
  viability, T/C: 9.75%
Second compound 0.316 µM, first compound 3.16 µM
  viability, T/C: 15.5%
Second compound 0.316 µM, first compound 10 µM
  viability, T/C: 19.4%
Second compound 1 µM, first compound 0.0316 µM
  viability, T/C: 12.6%
Second compound 1 µM, first compound 0.1 µM
  viability, T/C: 9.69%
Second compound 1 µM, first compound 0.316 µM
  viability, T/C: 9.77%
Second compound 1 µM, first compound 1 µM
  viability, T/C: 9.87%
Second compound 1 µM, first compound 3.16 µM
  viability, T/C: 15.3%
Second compound 1 µM, first compound 10 µM
  viability, T/C: 18.2%
